From patent US10585087B2, “Method for evaluating and selecting agent for suppressing odors of sulfide compounds” (KAO CORPORATION, priority 2015, dated 2020)

How the values were obtained:
[1] = biological target: T1, olfactory receptor OR4S2 (Homo sapiens, UniProt Q8NH73); assay: Luciferase reporter gene assay: response of olfactory receptor to sulfide compound; format: cell-based; conditions: for response of olfactory receptor OR4S2 (fold increase) in screen of 428 olfactory receptors / concentration dependence of the response of OR4S2: HEK293 cells expressing OR4S2; for response of olfactory receptor OR4S2 (fold increase) in screen of 428 olfactory receptors: 100 μM sulfide compound, FIG. 1; for concentration dependence of the response of OR4S2: different concentrations, FIG. 2
T1 construct: expressed in transfected cells; host or cells: HEK293
T1 sequence (Q8NH73 1-311): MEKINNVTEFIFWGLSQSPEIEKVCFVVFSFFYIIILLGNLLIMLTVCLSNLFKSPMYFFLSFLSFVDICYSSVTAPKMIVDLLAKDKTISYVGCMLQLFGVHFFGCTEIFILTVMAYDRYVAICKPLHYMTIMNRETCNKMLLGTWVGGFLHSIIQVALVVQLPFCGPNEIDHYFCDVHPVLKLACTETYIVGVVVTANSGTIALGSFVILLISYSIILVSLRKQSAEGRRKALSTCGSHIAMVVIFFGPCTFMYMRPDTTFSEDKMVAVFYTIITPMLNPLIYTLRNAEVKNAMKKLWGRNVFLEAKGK
Text: A human olfactory receptor was cloned by using the PCR method with human genomic DNA (G1521: Promega Corporation) as a template on the basis of sequence information registered in GenBank. Each gene amplified through the PCR method was incorporated into a pENTR vector (Invitrogen) in accordance with the manual, and recombined, by utilizing the NotI and AscI sites present in the pENTR vector, with a pME18S vector at the NotI and AscI sites produced in the downstream of the Flag-Rho tag sequence of the pME18S vector.
An RTP1S gene (SEQ ID NO: 3) encoding RTP1S (SEQ ID NO: 4) was incorporated into the pME18S vector at the EcoRI and XhoI sites thereof.
HEK293 cells expressing any one of 428 human olfactory receptors were produced. A reaction solution with a composition shown in Table 2 was prepared and left to stand in a clean bench for 15 minutes, and then added to each well of a 96-well plate (BD Biosciences). Subsequently, 90 μL of HEK293 cells (3×10^5 cells/cm^2) was seeded in each well, and cultured in an incubator retained at 37° C. and 5% CO2 for 24 hours. As a control, cells with conditions for no expression of an olfactory receptor (Mock) were prepared and used in an experiment.
An olfactory receptor expressed on HEK293 cells increases the intracellular cAMP level through conjugation with the intracellular Gαs followed by resulting activation of adenylate cyclase. For smell response measurement in this study, luciferase reporter gene assay was used in which increase of the intracellular cAMP level is monitored as an emission value derived from a firefly luciferase gene (fluc2P-CRE-hygro). Transgenesis was simultaneously performed by using a product with a sea pansy luciferase gene fused to the downstream of the CMV promoter (hRluc-CMV), and the resultant was used as an internal standard to correct errors of transgenesis efficiency and the number of cells.
The medium was removed from the culture prepared in the above (3), and 75 μL of a solution containing a sulfide compound prepared with DMEM (NACALAI TESQUE, INC.) was added. The sulfide compound was 100 μM of dimethyl disulfide (DMDS) or dimethyl trisulfide (DMTS). The cells were cultured in a CO2 incubator for 3 hours to allow the luciferase gene to be sufficiently expressed in the cells. Measurement of the activity of luciferase was performed by using a Dual-Glo™ luciferase assay system (Promega Corporation) in accordance with an operation manual of the product. For each stimulus condition, the value fLuc/hRluc was calculated by dividing the emission value derived from firefly luciferase by the emission value derived from sea pansy luciferase. The value fLuc/hRluc derived from firefly luciferase and induced by a stimulus of a sulfide compound was divided by the value fLuc/hRluc for cells without a stimulus of a sulfide compound to calculate a fold increase, and the fold increase was used as an indicator of intensity of response.

[2] = biological target: T1, olfactory receptor OR4S2; assay: Luciferase reporter gene assay: suppression of OR4S2 response to DMDS or DMTS by test substance; format: cell-based; conditions: for response (Fold increase) of OR4S2 to DMTS in the presence of test substance: 300 μM DMTS, test substance 100 μM, FIG. 6; for response (Response %) of OR4S2 to DMDS in the presence of test substance: 1 mM DMDS, test substance 0 to 3000 μM, FIG. 5
Method: By using the same procedure as in Example 1 (1) to (3), HEK293 cells expressing OR4S2 (SEQ ID NO: 2) were prepared. The response of the olfactory receptor to DMDS (the value fLuc/hRluc) was measured in the presence and absence of a test substance by using luciferase reporter gene assay in accordance with the procedure in Example 1 (4). The value fLuc/hRluc induced by a stimulus of single DMDS, (X), the value fLuc/hRluc for cells without a stimulus of DMDS, (Y), and the value fLuc/hRluc induced by a co-stimulus of DMDS and a test substance, (Z), were determined, and the intensity of the response (Response (%)) of the receptor to DMDS in the presence of a test substance was determined by using the following formula. Response (%)=(Z−Y)/(X−Y)×100 The experiment was performed independently three times, and the average value of the experiments was determined. The concentration of DMDS to be added to a culture was set at 1 mM, and the concentration of a test substance to be added was changed in the range of from 0 to 3000 μM.
For the response to DMTS, the value fLuc/hRluc to a stimulus of single DMTS, (X′), was divided by the value fLuc/hRluc for cells without a stimulus of DMTS, (Y), and the value obtained by the division, (X′/Y), was set as a value of the response to DMTS (Fold increase). To compare the effect of a test substance on the response to DMTS, the value fLuc/hRluc induced by a co-stimulus of DMTS and a test substance, (Z′), was similarly divided by the value fLuc/hRluc for cells without a stimulus, (Y), to calculate (Z′/Y) as Fold increase. The experiment was performed independently three times, and the average value of the experiments was determined. The concentration of DMTS to be added to a culture was set at 300 μM, and the concentration of a test substance to be added was set at 100 μM.

[3] = Sensory test of odor-suppressing effect for sulfide compounds; format: in vivo; conditions: for odor intensity of DMTS in sensory test: 0.01% (v/v) DMTS and 0.1% (v/v) test substance in mineral oil, 11 evaluators, FIG. 7B; for odor intensity of DMDS in sensory test: 0.1% (v/v) DMDS and 0.1% (v/v) test substance in mineral oil, 10 evaluators, FIG. 7A
Method: For each of DMDS, cis-4-heptenal, and 1,4-cineol, a 0.1% (v/v) solution in mineral oil was prepared. For DMTS, a 0.01% (v/v) solution in mineral oil was prepared. Two cotton balls were put in a 20 mL glass bottle (Maruemu Corporation, No. 6), and one cotton ball was impregnated with 30 μL of the DMDS or DMTS solution, and the other cotton ball was impregnated with 30 μL a solution of one of the OR4S2 antagonists. The glass bottle containing the cotton balls was covered with a lid, and left to stand at 37° C. for 1 hour, and thereafter used as a test sample for a sensory test. Glass bottles containing only a cotton ball impregnated with the DMDS or DMTS solution were prepared as reference samples, and a glass bottle containing only a cotton ball impregnated with mineral oil (Vehicle) was prepared as a control sample.
A sensory test was performed in a single-blinded mode with 10 evaluators for DMDS and 11 evaluators for DMTS. The test was initiated after two o'clock pm, which was 1.5 hours or longer after a meal. To prevent diffusion of a smell, the test was performed essentially under a fume hood. To eliminate the influence of adaptation to odors of sulfide compounds, the evaluators were appropriately checked for the intensity of recognition to the odor of DMDS or DMTS in the test, and rested as necessary. The evaluators were separated into two groups, and one group evaluated the odor-suppressing effect for DMDS or DMTS with respect to cis-4-heptenal and 1,4-cineol, in the order presented, and the other group evaluated it with respect to 1,4-cineol and cis-4-heptenal, in the order presented. Each test sample was replaced with another one after evaluation by each of three evaluators.
In evaluation of odors of test samples, the following criteria in five grades were set for each evaluator: “odor of DMDS (or DMTS) was 1: unidentifiable, 2: perceivable, 3: easily identifiable, 4: strong, 5: intolerably strong”, and the evaluators rated the odor intensity of DMDS (or DMTS) for each test sample in nine grades from 1.0 to 5.0 at an interval of 0.5, where the odor intensity of single DMDS (or DMTS) was assumed as 3. The average value of the evaluation results by the evaluators was determined.

response (Fold increase) of OR4S2 to DMTS in the presence of test substance [2] | Structure (SMILES) | response of olfactory receptor OR4S2 (fold increase) in screen of 428 olfactory receptors [1] | concentration dependence of the response of OR4S2 [1] | response (Response %) of OR4S2 to DMDS in the presence of test substance [2] | odor intensity of DMTS in sensory test [3] | odor intensity of DMDS in sensory test [3] | also measured
– | CSSC [DMDS, Dimethyl disulfide] | exhibits a specific response | in a concentration-dependent manner | – | – | – | –
suppressed the response of OR4S2 to DMTS | CC/C=C\CCC=O [cis-4-Heptenal, (Z)-Hept-4-enal] | – | – | suppressed the response of OR4S2 to DMDS in a concentration-dependent manner | suppressed the odor intensity | suppressed the odor intensity | –
suppressed the response of OR4S2 to DMTS | CC(C)C12CCC(C)(CC1)O2 [1,4-cineol, 1,4-Cineole] | – | – | suppressed the response of OR4S2 to DMDS in a concentration-dependent manner | suppressed the odor intensity | suppressed the odor intensity | –
– | CSC [dimethyl sulfide (DMS), Dimethylsulfide] | – | – | – | – | – | response of OR4S2 ([1]; concentration of 1 mM and 3 mM, FIG. 3): responded
– | CSSSC [DMTS, Dimethyl trisulfide] | exhibits a specific response | in a concentration-dependent manner | – | – | – | –
– | CS [methylmercaptan, Methylmercaptan] | – | – | – | – | – | response of OR4S2 ([1]; 3 mM, FIG. 4): did not respond
